13 compounds from US20260284028A1, “FUSED BICYCLIC HETEROCYCLYL COMPOUNDS AS CCR4 MODULATORS” (AURIGENE ONCOLOGY LIMITED, priority 2023, published 2026) can be followed below.

SMILES strings stand for the structures. Like-named read-outs stand apart in the source and are kept apart here. Some results are limits rather than exact numbers.

The experiment has as its target T1, CCR4 (Homo sapiens, UniProt P51679).
T1 construct: expressed in transfected cells; host or cells: CHO-K1
T1 sequence (P51679 1-360): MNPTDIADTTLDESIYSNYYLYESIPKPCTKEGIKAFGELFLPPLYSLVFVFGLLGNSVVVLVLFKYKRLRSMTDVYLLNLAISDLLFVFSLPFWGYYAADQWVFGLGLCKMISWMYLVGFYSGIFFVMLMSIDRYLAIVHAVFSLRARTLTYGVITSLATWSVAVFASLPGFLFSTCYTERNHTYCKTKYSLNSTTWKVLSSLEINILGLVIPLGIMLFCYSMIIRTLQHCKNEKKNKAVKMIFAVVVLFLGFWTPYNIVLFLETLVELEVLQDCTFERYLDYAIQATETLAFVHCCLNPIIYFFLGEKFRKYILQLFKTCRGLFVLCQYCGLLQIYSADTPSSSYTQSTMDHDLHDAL
The experiment in a line: β-Arrestin recruitment assay (CHO-K1 CCR4 β-Arrestin cells stimulated with recombinant human CCL22). Type of experiment: cell-based. The settings on record: CCL22 10 nM stimulation; for IC50: read-out: CCR4 antagonistic activity IC50 (μM) in range; for inhibition: read-out: % inhibition at 5 μM/30 μM (% E-Max). The procedure:
CHO-K1 CCR4 β-Arrestin cells were seeded and incubated overnight at 37° C. in a CO2 incubator for adherence. Next day, cells were pretreated with various concentrations of CCR4 modulators for 30 mins at 37° C. The cells were stimulated with recombinant human CCL22 (10 nM) and further incubated for 90 mins. Working detection solution was added and incubated at room temperature for 1 hour after which the chemiluminescent signal was read using a luminometer.
Exemplary compounds of the present application were screened by the above-mentioned assay and the results were tabulated.

The mark [1] stands for this setting: CHO-K1, read-out: % inhibition 30 μM (% E-Max).

A word on the IC50: it is the midpoint of a concentration-inhibition curve. For `CC(Nc1c(F)ccc2nc(N3CC([C@H]4CCCN([C@H]5C[C@](C)(C(=O)O)C5)C4)C3)sc12)c1ncc(Cl)cc1Cl` (mixture of isomers) [Compound 35, (1R,3r)-3-((3R)-3-(1-(7-((1-(3,5-dichloropyridin-2-yl)ethyl)amino)-6-fluorobenzo[d]thiazol-2-yl)azetidin-3-yl)piperidin-1-yl)-1-methylcyclobutane-1-carboxylic acid], the IC50 is less than 0.25 µM. The inhibition under setting [1] was determined as 102%.

For the compound `C[C@@H](Nc1c(F)ccc2nc(N3CC(C4CN([C@H]5C[C@](C)(C(=O)O)C5)CCO4)C3)sc12)c1ccc(Cl)cc1Cl` (single isomer, unassigned) [Compound 27], the half-inhibitory concentration (IC50) was 0.25 to 0.5 µM and the “% inhibition at 5 μM/30 μM (% E-Max)” value is listed as 99% at 5 μM. With `C[C@@H](Nc1c(F)ccc2nc(N3CC(C4CN([C@H]5C[C@](C)(C(=O)O)C5)CCO4)C3)sc12)c1ccc(Cl)cc1Cl` (single isomer, unassigned) [Compound 28], the “% inhibition at 5 μM/30 μM (% E-Max)” value is listed as 72% at 5 μM. For the compound `C[C@@H](Nc1c(F)cnc2nc(N3CC([C@H]4CCCN([C@H]5C[C@](C)(C(=O)O)C5)C4)C3)sc12)c1ncc(Cl)cc1Cl` (single isomer, unassigned) [Compound 42], the half-inhibitory concentration (IC50) was 0.25 to 0.5 µM. Besides, the inhibition under setting [1] is 103%. In the case of `C[C@H](Nc1c(F)cnc2nc(N3CC([C@H]4CCCN([C@H]5C[C@](C)(C(=O)O)C5)C4)C3)sc12)c1ncc(Cl)cc1Cl` (single isomer, unassigned) [Compound 43], the IC50 is more than 0.5 µM. Also, the inhibition under setting [1] stood at 95%. For `C[C@@H](Nc1c(F)cnc2nc(N3CC([C@H]4CCCN([C@H]5C[C@](C)(C(=O)O)C5)C4)C3)sc12)c1ncc(F)cc1F` (single isomer, unassigned) [Compound 45], the IC50 was more than 0.5 µM. For the same compound, the inhibition under setting [1] is 89%. As for `C[C@H](Nc1c(F)cnc2nc(N3CC([C@H]4CCCN([C@H]5C[C@](C)(C(=O)O)C5)C4)C3)sc12)c1ncc(F)cc1F` (single isomer, unassigned) [Compound 46], the IC50 is 0.25 to 0.5 µM. In addition, the inhibition under setting [1] turned out to be 99%. Regarding `C[C@H](Nc1c(OC(F)F)ccc2nc(N3CC([C@H]4CCCN([C@H]5C[C@](C)(C(=O)O)C5)C4)C3)sc12)c1ncc(Cl)cc1Cl` (single isomer, unassigned) [Compound 49], the IC50 lay in the range of 0.25 to 0.5 µM. Also, the inhibition under setting [1] was 99%. Consider `C[C@@H](Nc1c(OC(F)F)ccc2nc(N3CC([C@H]4CCCN([C@H]5C[C@](C)(C(=O)O)C5)C4)C3)sc12)c1ncc(F)cc1F` (single isomer, unassigned) [Compound 51], for which the IC50 is more than 0.5 µM. Under “CHO-K1, at 30 μM”, the inhibition stood at 77%. `C[C@@H](Nc1c(Cl)ccc2nc(N3CC([C@H]4CCCN([C@H]5C[C@](C)(C(=O)O)C5)C4)C3)oc12)c1ccc(Cl)cc1Cl` [Compound 1, (1R,3r)-3-((R)-3-(1-(6-Chloro-7-(((R)-1-(2,4-dichlorophenyl)ethyl)amino)benzo[d]oxazol-2-yl)azetidin-3-yl)piperidin-1-yl)-1-methylcyclobutane-1-carboxylic acid]: the IC50 was less than 0.25 µM. The inhibition (CHO-K1, at 30 μM) is 103%. On to `C[C@@H](Nc1cccc2nc(N3CC([C@H]4CCCN([C@H]5C[C@](C)(C(=O)O)C5)C4)C3)oc12)c1ccc(Cl)cc1Cl` [Compound 2, (1R,3r)-3-((R)-3-(1-(7-(((R)-1-(2,4-dichlorophenyl)ethyl)amino)benzo[d]oxazol-2-yl)azetidin-3-yl)piperidin-1-yl)-1-methylcyclobutane-1-carboxylic acid], for which the IC50 is less than 0.25 µM. The inhibition (CHO-K1, at 30 μM) is 99.5%. On to `C[C@@H](Nc1cccc2c1nc(N1CC([C@H]3CCCN([C@H]4C[C@](C)(C(=O)O)C4)C3)C1)n2C)c1ccc(Cl)cc1Cl` [Compound 4], for which, where the note is “CHO-K1, at 30 μM”, the inhibition was 71%.

Consider `Cc1cc(N[C@H](C)c2ccc(Cl)cc2Cl)c2oc(N3CC([C@H]4CCCN([C@H]5C[C@](C)(C(=O)O)C5)C4)C3)nc2c1` [Compound 5], for which the concentration for half-maximal inhibition (IC50) is 0.25 to 0.5 µM. Further, where the note is “CHO-K1, at 30 μM”, the inhibition worked out at 102%.
